What all share (experiment): weeding effect in post-emergence stage
What all share (type): in vivo

In one experiment the test system is Alopecurus japonicus. In a few lines:
(§1)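 Post-emergence spray-tower application at 500, 250, 125, 60, 15 or 7.5 g a.i./ha, formulated in acetone with Tween 80 and 1.5 L/ha methyl oleate synergist, to pot-grown plants at the 2-3 leaf stage. After 3 weeks in the greenhouse, fresh-weight control rate graded levels 0-5; three replicates averaged.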

Another experiment has as its system Beckmannia syzigachne. In a few lines:
as §1

The subject of a further experiment is Conyza japonica. In a few lines: as §1
A further experiment relates to Rorippa indica. In a few lines: as §1

Structures are written as SMILES.

As for `CCOC(=O)[C@]1(CC)CC(c2cc(-n3c(=O)cc(C(F)(F)F)n(C)c3=O)c(F)cc2Cl)=NO1` [105(S)], the “weeding effect in post-emergence stage, Alopecurus japonicus (activity level)” value with Alopecurus japonicus (dose 125 g a.i./ha) is 5 (Level 5: growth control rate is above 85%). Moreover, the “weeding effect in post-emergence stage, Beckmannia syzigachne (activity level)” value in the experiment on Beckmannia syzigachne (dose 125 g a.i./ha) is listed as 5 (Level 5: growth control rate is above 85%). Also, in the experiment on Conyza japonica (dose 125 g a.i./ha), the “weeding effect in post-emergence stage, Conyza japonica (activity level)” value is 5 (Level 5: growth control rate is above 85%). Besides, the “weeding effect in post-emergence stage, Rorippa indica (activity level)” value (“weeding effect … Rorippa indica (activity level)” for short) with Rorippa indica (dose 125 g a.i./ha) is given as 5 (Level 5: growth control rate is above 85%).

Turning to `CCOC(=O)[C@@]1(C2CC2)CC(c2cc(-n3c(=O)cc(C(F)(F)F)n(C)c3=O)c(F)cc2Cl)=NO1` [119(S)], the “weeding effect in post-emergence stage, Alopecurus japonicus (activity level)” value in the experiment on Alopecurus japonicus (dose 7.5 g a.i./ha) and in the experiment with Alopecurus japonicus (dose 125 g a.i./ha) was 5 (Level 5: growth control rate is above 85%) each time. Also, the “weeding effect in post-emergence stage, Beckmannia syzigachne (activity level)” value with Beckmannia syzigachne (dose 7.5 g a.i./ha) and in the experiment on Beckmannia syzigachne (dose 125 g a.i./ha) was 5 (Level 5: growth control rate is above 85%) throughout. Besides, the “weeding effect in post-emergence stage, Conyza japonica (activity level)” value with Conyza japonica (dose 7.5 g a.i./ha) was 4 (Level 4: growth control rate is greater than or equal to 60% and less than 85%); in the experiment on Conyza japonica (dose 125 g a.i./ha), 5 (Level 5: growth control rate is above 85%). The “weeding effect … Rorippa indica (activity level)” value was 4 (Level 4: growth control rate is greater than or equal to 60% and less than 85%) in the experiment with Rorippa indica (dose 7.5 g a.i./ha); 5 (Level 5: growth control rate is above 85%) in the experiment with Rorippa indica (dose 125 g a.i./ha).

Turning to `CCOC(=O)[C@@]1(C2CCC2)CC(c2cc(-n3c(=O)cc(C(F)(F)F)n(C)c3=O)c(F)cc2Cl)=NO1` [126(S)], in the experiment on Alopecurus japonicus (dose 15 g a.i./ha), the “weeding effect in post-emergence stage, Alopecurus japonicus (activity level)” value is given as 5 (Level 5: growth control rate is above 85%). Further, the “weeding effect in post-emergence stage, Beckmannia syzigachne (activity level)” value in the experiment on Beckmannia syzigachne (dose 15 g a.i./ha) was 5 (Level 5: growth control rate is above 85%). Further, in the experiment with Conyza japonica (dose 15 g a.i./ha), the “weeding effect in post-emergence stage, Conyza japonica (activity level)” value was 5 (Level 5: growth control rate is above 85%). In the experiment on Rorippa indica (dose 15 g a.i./ha), the “weeding effect … Rorippa indica (activity level)” value was 5 (Level 5: growth control rate is above 85%).

With `COC(=O)[C@@]1(F)CC(c2cc(-n3c(=O)cc(C(F)(F)F)n(C)c3=O)c(F)cc2Cl)=NO1` [129(S)], the “weeding effect in post-emergence stage, Alopecurus japonicus (activity level)” value in the experiment with Alopecurus japonicus (dose 15 g a.i./ha) is 5 (Level 5: growth control rate is above 85%). In addition, in the experiment on Beckmannia syzigachne (dose 15 g a.i./ha), the “weeding effect in post-emergence stage, Beckmannia syzigachne (activity level)” value is recorded as 5 (Level 5: growth control rate is above 85%). In addition, the “weeding effect in post-emergence stage, Conyza japonica (activity level)” value in the experiment on Conyza japonica (dose 15 g a.i./ha) is reported as 5 (Level 5: growth control rate is above 85%). Moreover, in the experiment with Rorippa indica (dose 15 g a.i./ha), the “weeding effect … Rorippa indica (activity level)” value was 5 (Level 5: growth control rate is above 85%).

Turning to `CCOC(=O)[C@]1(CF)CC(c2cc(-n3c(=O)cc(C(F)(F)F)n(C)c3=O)c(F)cc2Cl)=NO1` [132(S)], the “weeding effect in post-emergence stage, Alopecurus japonicus (activity level)” value with Alopecurus japonicus (dose 15 g a.i./ha) is recorded as 5 (Level 5: growth control rate is above 85%). Further, the “weeding effect in post-emergence stage, Beckmannia syzigachne (activity level)” value in the experiment on Beckmannia syzigachne (dose 15 g a.i./ha) was 5 (Level 5: growth control rate is above 85%). Also, in the experiment on Conyza japonica (dose 15 g a.i./ha), the “weeding effect in post-emergence stage, Conyza japonica (activity level)” value is given as 5 (Level 5: growth control rate is above 85%). Besides, the “weeding effect … Rorippa indica (activity level)” value in the experiment with Rorippa indica (dose 15 g a.i./ha) is listed as 5 (Level 5: growth control rate is above 85%).

`CCOC(=O)[C@]1(C(F)F)CC(c2cc(-n3c(=O)cc(C(F)(F)F)n(C)c3=O)c(F)cc2Cl)=NO1` [134(S)]: the “weeding effect in post-emergence stage, Alopecurus japonicus (activity level)” value in the experiment on Alopecurus japonicus (dose 15 g a.i./ha) is on record as 5 (Level 5: growth control rate is above 85%). In addition, the “weeding effect in post-emergence stage, Beckmannia syzigachne (activity level)” value in the experiment on Beckmannia syzigachne (dose 15 g a.i./ha) is 5 (Level 5: growth control rate is above 85%). Besides, the “weeding effect in post-emergence stage, Conyza japonica (activity level)” value with Conyza japonica (dose 15 g a.i./ha) was 5 (Level 5: growth control rate is above 85%). In the experiment with Rorippa indica (dose 15 g a.i./ha), the “weeding effect … Rorippa indica (activity level)” value was 5 (Level 5: growth control rate is above 85%).

Regarding `CCOC(=O)[C@]1(C(F)(F)F)CC(c2cc(-n3c(=O)cc(C(F)(F)F)n(C)c3=O)c(F)cc2Cl)=NO1` [135(S)], the “weeding effect in post-emergence stage, Alopecurus japonicus (activity level)” value with Alopecurus japonicus (dose 15 g a.i./ha) was 5 (Level 5: growth control rate is above 85%). Besides, the “weeding effect in post-emergence stage, Beckmannia syzigachne (activity level)” value in the experiment with Beckmannia syzigachne (dose 15 g a.i./ha) is 5 (Level 5: growth control rate is above 85%). Besides, the “weeding effect in post-emergence stage, Conyza japonica (activity level)” value with Conyza japonica (dose 15 g a.i./ha) is 5 (Level 5: growth control rate is above 85%). For the same compound, the “weeding effect … Rorippa indica (activity level)” value in the experiment on Rorippa indica (dose 15 g a.i./ha) is reported as 5 (Level 5: growth control rate is above 85%).

Consider `CCOC(=O)[C@@]1(CCF)CC(c2cc(-n3c(=O)cc(C(F)(F)F)n(C)c3=O)c(F)cc2Cl)=NO1` [136(S)], for which the “weeding effect in post-emergence stage, Alopecurus japonicus (activity level)” value in the experiment with Alopecurus japonicus (dose 15 g a.i./ha) was 5 (Level 5: growth control rate is above 85%). Moreover, in the experiment on Beckmannia syzigachne (dose 15 g a.i./ha), the “weeding effect in post-emergence stage, Beckmannia syzigachne (activity level)” value was 5 (Level 5: growth control rate is above 85%). The “weeding effect in post-emergence stage, Conyza japonica (activity level)” value in the experiment with Conyza japonica (dose 15 g a.i./ha) is reported as 5 (Level 5: growth control rate is above 85%). Moreover, the “weeding effect … Rorippa indica (activity level)” value in the experiment on Rorippa indica (dose 15 g a.i./ha) is on record as 5 (Level 5: growth control rate is above 85%).

In the case of `CCOC(=O)[C@@]1(CO)CC(c2cc(-n3c(=O)cc(C(F)(F)F)n(C)c3=O)c(F)cc2Cl)=NO1` [142(S)], the “weeding effect in post-emergence stage, Alopecurus japonicus (activity level)” value with Alopecurus japonicus (dose 15 g a.i./ha) is 5 (Level 5: growth control rate is above 85%). The “weeding effect in post-emergence stage, Beckmannia syzigachne (activity level)” value in the experiment with Beckmannia syzigachne (dose 15 g a.i./ha) is on record as 5 (Level 5: growth control rate is above 85%). In addition, the “weeding effect in post-emergence stage, Conyza japonica (activity level)” value in the experiment with Conyza japonica (dose 15 g a.i./ha) is 5 (Level 5: growth control rate is above 85%). Besides, the “weeding effect … Rorippa indica (activity level)” value with Rorippa indica (dose 15 g a.i./ha) is 5 (Level 5: growth control rate is above 85%).

Turning to `CCOC(=O)[C@@]1(C=O)CC(c2cc(-n3c(=O)cc(C(F)(F)F)n(C)c3=O)c(F)cc2Cl)=NO1` [152(S)], the “weeding effect in post-emergence stage, Alopecurus japonicus (activity level)” value in the experiment with Alopecurus japonicus (dose 15 g a.i./ha) is on record as 5 (Level 5: growth control rate is above 85%). Moreover, the “weeding effect in post-emergence stage, Beckmannia syzigachne (activity level)” value in the experiment with Beckmannia syzigachne (dose 15 g a.i./ha) is 5 (Level 5: growth control rate is above 85%). The “weeding effect in post-emergence stage, Conyza japonica (activity level)” value in the experiment with Conyza japonica (dose 15 g a.i./ha) was 5 (Level 5: growth control rate is above 85%). Also, the “weeding effect … Rorippa indica (activity level)” value in the experiment with Rorippa indica (dose 15 g a.i./ha) is given as 5 (Level 5: growth control rate is above 85%).

In the case of `CCOC(=O)[C@@]1(C(C)C)CC(c2cc(-n3c(=O)n(C)c(=S)n(C)c3=S)c(F)cc2Cl)=NO1` [204(S)], the “weeding effect in post-emergence stage, Alopecurus japonicus (activity level)” value with Alopecurus japonicus (dose 15 g a.i./ha) is on record as 5 (Level 5: growth control rate is above 85%). Further, the “weeding effect in post-emergence stage, Beckmannia syzigachne (activity level)” value in the experiment with Beckmannia syzigachne (dose 15 g a.i./ha) was 5 (Level 5: growth control rate is above 85%). Also, the “weeding effect in post-emergence stage, Conyza japonica (activity level)” value in the experiment with Conyza japonica (dose 15 g a.i./ha) is 5 (Level 5: growth control rate is above 85%). Moreover, in the experiment on Rorippa indica (dose 15 g a.i./ha), the “weeding effect … Rorippa indica (activity level)” value is 5 (Level 5: growth control rate is above 85%).

Take `CCCC[C@@]1(C(=O)OCC)CC(c2cc(-n3c(=O)n(C)c(=S)n(C)c3=S)c(F)cc2Cl)=NO1` [205(S)]: the “weeding effect in post-emergence stage, Alopecurus japonicus (activity level)” value in the experiment with Alopecurus japonicus (dose 15 g a.i./ha) is recorded as 5 (Level 5: growth control rate is above 85%). For the same compound, the “weeding effect in post-emergence stage, Beckmannia syzigachne (activity level)” value in the experiment on Beckmannia syzigachne (dose 15 g a.i./ha) was 5 (Level 5: growth control rate is above 85%). Also, in the experiment with Conyza japonica (dose 15 g a.i./ha), the “weeding effect in post-emergence stage, Conyza japonica (activity level)” value is 5 (Level 5: growth control rate is above 85%). For the same compound, the “weeding effect … Rorippa indica (activity level)” value in the experiment with Rorippa indica (dose 15 g a.i./ha) was 5 (Level 5: growth control rate is above 85%).
